Legend:
Type in all cases: in vivo
[1] = test system: Surinam grass (Brachiaria decumbens); experiment: Test B postemergence
How it was run: (§1)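 Preemergence: seeds planted and treated with test chemicals in non-phytotoxic solvent with surfactant; postemergence on plants 2–18 cm (1- to 4-leaf stage). Kept in greenhouse 13–15 days, then visually rated against controls on a 0 (no effect) to 100 (complete control) scale.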

[2] = test system: barnyardgrass (Echinochloa crus-galli); experiment: Test B postemergence
How it was run: as §1

[3] = test system: blackgrass (Alopecurus myosuroides); experiment: Test B postemergence
How it was run: as §1

[4] = test system: cocklebur (Xanthium strumarium); experiment: Test B postemergence
How it was run: as §1

[5] = test system: corn (Zea mays); experiment: Test B postemergence
How it was run: as §1

[6] = test system: crabgrass (Digitaria sanguinalis); experiment: Test B postemergence
How it was run: as §1

[7] = test system: giant foxtail (Setaria faberii); experiment: Test B postemergence
How it was run: as §1

[8] = test system: lambsquarters (Chenopodium album); experiment: Test B postemergence
How it was run: as §1

[9] = test system: morning glory (Ipomoea hederacea); experiment: Test B postemergence
How it was run: as §1

[10] = test system: pigweed (Amaranthus retroflexus); experiment: Test B postemergence
How it was run: as §1

[11] = test system: velvetleaf (Abutilon theophrasti); experiment: Test B postemergence
How it was run: as §1

[12] = test system: wheat (Triticum aestivum); experiment: Test B postemergence
How it was run: as §1

[13] = test system: wild oat (Avena fatua); experiment: Test B postemergence
How it was run: as §1

[14] = test system: Surinam grass (Brachiaria decumbens); experiment: Test B preemergence
How it was run: as §1

[15] = test system: barnyardgrass (Echinochloa crus-galli); experiment: Test B preemergence
How it was run: as §1

[16] = test system: cocklebur (Xanthium strumarium); experiment: Test B preemergence
How it was run: as §1

[17] = test system: corn (Zea mays); experiment: Test B preemergence
How it was run: as §1

[18] = test system: crabgrass (Digitaria sanguinalis); experiment: Test B preemergence
How it was run: as §1

[19] = test system: giant foxtail (Setaria faberii); experiment: Test B preemergence
How it was run: as §1

[20] = test system: lambsquarters (Chenopodium album); experiment: Test B preemergence
How it was run: as §1

[21] = test system: morning glory (Ipomoea hederacea); experiment: Test B preemergence
How it was run: as §1

[22] = test system: pigweed (Amaranthus retroflexus); experiment: Test B preemergence
How it was run: as §1

[23] = test system: rice (Oryza saliva); experiment: Test B preemergence
How it was run: as §1

[24] = test system: velvetleaf (Abutilon theophrasti); experiment: Test B preemergence
How it was run: as §1

[25] = test system: Nightshade; experiment: Test C preemergence; details: visual evaluation after 12 to 14 days
[26] = test system: Sunflower; experiment: Test C preemergence; details: scale 0 to 100, 0 no effect, 100 complete control
[27] = Rate 125 g/ha, scale 0 to 100, 0 no effect, 100 complete control
[28] = Rate 500 g/ha, scale 0 to 100, 0 is no effect, 100 is complete control, 13 to 15 days
[29] = Preemergence, Rate 500 g/ha, scale 0 to 100, 0 no effect, 100 complete control
[30] = preemergence, Rate 125 g/ha, scale of 0 to 100 where 0 is no effect and 100 is complete control, 13 to 15 days
[31] = Rate 125 g/ha, scale 0 (no effect) to 100 (complete control), 13 to 15 days
[32] = preemergence, Rate 125 g/ha, scale 0 to 100, 0 no effect, 100 complete control

Which results are given for `COc1cc(N2CCC(n3ccc(C(C)C)n3)C2=O)ccc1Cl` (stereo not shown) [Compound 120]?
Plant response rating, Surinam grass [1, 27]: 20; Plant response rating, Surinam grass [1, 28]: 40; Plant response rating, Barnyardgrass [2, 27]: 0; Plant response rating, Barnyardgrass [2, 28]: 60; Plant response rating, Blackgrass [3, 27]: 0; Plant response rating, Blackgrass [3, 28]: 0; Plant response rating, Cocklebur [4, 27]: 90; Plant response rating, Cocklebur [4, 28]: 100; Plant response rating, Corn [5, 27]: 0; Plant response rating, Corn [5, 28]: 20; Plant response rating, Crabgrass [6, 27]: 30; Plant response rating, Foxtail, Giant [7, 27]: 0; Plant response rating, Lambsquarters [8, 27]: 60; Plant response rating, Morningglory [9, 27]: 50; Plant response rating, Pigweed [10, 27]: 60; Plant response rating, Velvetleaf [11, 27]: 20; Plant response rating, Wheat [12, 27]: 10; Plant response rating, Wild Oat [13, 27]: 30; Plant response rating, Surinam grass [14, 29]: 100; Plant response rating, Surinam grass [14, 30]: 40; Plant response rating, Barnyardgrass [15, 29]: 100; Plant response rating, Barnyardgrass [15, 30]: 100; Plant response rating, Cocklebur [16, 29]: 40; Plant response rating, Cocklebur [16, 30]: 20; Plant response rating, Corn [17, 29]: 50; Plant response rating, Corn [17, 30]: 20; Plant response rating, Crabgrass [18, 29]: 100; Plant response rating, Crabgrass [18, 30]: 100; Plant response rating, Foxtail, Giant [19, 29]: 100; Plant response rating, Foxtail, Giant [19, 30]: 100; Plant response rating, Lambsquarters [20, 29]: 100; Plant response rating, Lambsquarters [20, 30]: 100; Plant response rating, Morningglory [21, 29]: 100; Plant response rating, Morningglory [21, 30]: 70; Plant response rating, Pigweed [22, 29]: 100; Plant response rating, Pigweed [22, 30]: 100; Plant response rating, Rice [23, 29]: 30; Plant response rating, Rice [23, 30]: 20; Plant response rating, Velvetleaf [24, 29]: 40; Plant response rating, Velvetleaf [24, 30]: 20; Plant response rating (0 to 100), Nightshade ([25]; Rate 500 g/ha): 100; Plant response rating, Sunflower ([26]; Rate 250 g/ha): 100

For `CC(C)(C)c1ccn(C2SCN(c3cccc(OC(F)(F)F)c3)C2=O)n1` (stereo not shown) [Compound 30], which “Plant response rating, Surinam grass” value [1, 31] is on record?
The value was 0.

And the “Plant response rating, Surinam grass” value [1, 28]?
Its value is 20.

And the “Plant response rating, Barnyardgrass” value [2, 31]?
Its value is 100.

What about the “Plant response rating, Barnyardgrass” value [2, 28] of the same molecule?
Its value is 100.

And the “Plant response rating, Blackgrass” value [3, 31]?
The value was 0.

What about the “Plant response rating, Blackgrass” value [3, 28] of the same molecule?
The value was 20.

And the “Plant response rating, Cocklebur” value [4, 31]?
Its value is 70.

And the “Plant response rating, Cocklebur” value [4, 28]?
Its value is 70.

And the “Plant response rating, Corn” value [5, 31]?
The value was 0.

What about the “Plant response rating, Corn” value [5, 28] of the same molecule?
The value was 0.

What about the “Plant response rating, Crabgrass” value [6, 31] of the same molecule?
Its value is 50.

What about the “Plant response rating, Crabgrass” value [6, 28] of the same molecule?
Its value is 100.

And the “Plant response rating, Foxtail, Giant” value [7, 31]?
Its value is 10.

What about the “Plant response rating, Foxtail, Giant” value [7, 28] of the same molecule?
Its value is 80.

And the “Plant response rating, Lambsquarters” value [8, 31]?
Its value is 90.

And the “Plant response rating, Lambsquarters” value [8, 28]?
Its value is 90.

What about the “Plant response rating, Morningglory” value [9, 31] of the same molecule?
Its value is 40.

What about the “Plant response rating, Morningglory” value [9, 28] of the same molecule?
Its value is 90.

And the “Plant response rating, Pigweed” value [10, 31]?
Its value is 100.

And the “Plant response rating, Pigweed” value [10, 28]?
Its value is 100.

What about the “Plant response rating, Velvetleaf” value [11, 31] of the same molecule?
Its value is 0.

What about the “Plant response rating, Velvetleaf” value [11, 28] of the same molecule?
Its value is 0.

And the “Plant response rating, Wheat” value [12, 31]?
The value was 0.

What about the “Plant response rating, Wheat” value [12, 28] of the same molecule?
Its value is 0.

What about the “Plant response rating, Wild Oat” value [13, 31] of the same molecule?
The value was 0.

What about the “Plant response rating, Wild Oat” value [13, 28] of the same molecule?
The value was 0.

What about the “Plant response rating, Surinam grass” value [14, 29] of the same molecule?
Its value is 60.

What about the “Plant response rating, Surinam grass” value [14, 32] of the same molecule?
The value was 40.

What about the “Plant response rating, Barnyardgrass” value [15, 29] of the same molecule?
Its value is 100.

And the “Plant response rating, Barnyardgrass” value [15, 32]?
The value was 40.

What about the “Plant response rating, Cocklebur” value [16, 29] of the same molecule?
Its value is 90.

And the “Plant response rating, Cocklebur” value [16, 32]?
The value was 0.

What about the “Plant response rating, Corn” value [17, 29] of the same molecule?
The value was 0.

What about the “Plant response rating, Corn” value [17, 32] of the same molecule?
The value was 0.

And the “Plant response rating, Crabgrass” value [18, 29]?
The value was 100.

What about the “Plant response rating, Crabgrass” value [18, 32] of the same molecule?
Its value is 20.

And the “Plant response rating, Foxtail, Giant” value [19, 29]?
The value was 100.

What about the “Plant response rating, Foxtail, Giant” value [19, 32] of the same molecule?
Its value is 70.

What about the “Plant response rating, Lambsquarters” value [20, 29] of the same molecule?
Its value is 100.

What about the “Plant response rating, Lambsquarters” value [20, 32] of the same molecule?
Its value is 100.

What about the “Plant response rating, Morningglory” value [21, 29] of the same molecule?
The value was 90.

What about the “Plant response rating, Pigweed” value [22, 29] of the same molecule?
The value was 100.

And the “Plant response rating, Rice” value [23, 29]?
Its value is 0.

What about the “Plant response rating, Velvetleaf” value [24, 29] of the same molecule?
The value was 40.

And the “Plant response rating (0 to 100), Nightshade” value ([25]; Rate 250 g/ha)?
Its value is 100.

And the “Plant response rating, Sunflower” value ([26]; Rate 125 g/ha)?
The value was 80.

Reference: patent US7138361B2, “Herbicidal heterocycles” (E. I. du Pont de Nemours and Company, priority 2000, dated 2006)
